Data on three molecules can be found in ChEMBL document CHEMBL1154131, “Bioactive diterpenes and other constituents of Croton steenkampianus” (J Nat Prod, 2008).

≈ marks a conversion by molar mass, not a printed value.

What is called IC50 is the concentration needed to halve the response being measured.

For assay [1], the system named is Plasmodium falciparum. In words: Antiplasmodial activity against chloroquine-resistant Plasmodium falciparum Dd2. Type of assay: functional, organism-based.
The next assay has as its system Vero. In words: Cytotoxicity against african green monkey Vero cells by MTT assay. The assay is classed as cell-based. The settings on record: Chlorocebus sabaeus.
In assay [2] the test system is Plasmodium falciparum. Nature of the assay: Antiplasmodial activity against chloroquine-susceptible Plasmodium falciparum D10. The assay is classed as functional, organism-based.

Turning to `O=c1c(O)c(-c2ccc(O)c(O)c2)oc2cc(O)cc(O)c12` [QUERCETIN], the values for the IC50 in the assay with Plasmodium falciparum [1] and in the assay with Vero were 2.4 µg/mL (≈ 7.94 µM) and 110 µg/mL (≈ 364 µM), respectively.

In the assay with Vero, `CCN(CC)CCCC(C)Nc1ccnc2cc(Cl)ccc12` (stereo not given) [CHLOROQUINE] displayed an IC50 of 48.5 µg/mL (≈ 152 µM).

As for `COc1ccc(-c2oc3cc(O)cc(O)c3c(=O)c2O)cc1O` [TAMARIXETIN], the figures for the IC50 in the assay with Plasmodium falciparum [2] and in the assay on Vero were 1.1 µg/mL (≈ 3.48 µM) and 170 µg/mL (≈ 538 µM), respectively.
